Numbers after ± are expanded uncertainties.
Assay: xn = mol fraction of the nth substance listed
Details: Liquid, Vibrating tube method

CCCCCCCCCCC [undecane] + CCCCCCC
mass density (343.03 K, 20000 kPa, x2 = 0.7482): 682.7 ± 0.4 kg/m3 | mass density (343.03 K, 21000 kPa, x2 = 0.7482): 683.6 ± 0.4 kg/m3 | mass density (343.03 K, 22000 kPa, x2 = 0.7482): 684.5 ± 0.4 kg/m3 | mass density (343.03 K, 23000 kPa, x2 = 0.7482): 685.4 ± 0.5 kg/m3 | mass density (343.03 K, 24000 kPa, x2 = 0.7482): 686.2 ± 0.5 kg/m3 | mass density (343.03 K, 25000 kPa, x2 = 0.7482): 687.1 ± 0.5 kg/m3 | mass density (343.06 K, 1010 kPa, x2 = 0.2346): 693.6 ± 0.3 kg/m3 | mass density (343.06 K, 2010 kPa, x2 = 0.2346): 694.6 ± 0.3 kg/m3 | mass density (343.06 K, 3010 kPa, x2 = 0.2346): 695.7 ± 0.3 kg/m3 | mass density (343.06 K, 4011 kPa, x2 = 0.2346): 696.7 ± 0.3 kg/m3 | mass density (343.06 K, 5011 kPa, x2 = 0.2346): 697.7 ± 0.3 kg/m3 | mass density (343.06 K, 6011 kPa, x2 = 0.2346): 698.7 ± 0.3 kg/m3 | mass density (343.06 K, 7012 kPa, x2 = 0.2346): 699.7 ± 0.3 kg/m3 | mass density (343.06 K, 8012 kPa, x2 = 0.2346): 700.6 ± 0.3 kg/m3 | mass density (343.06 K, 9012 kPa, x2 = 0.2346): 701.6 ± 0.3 kg/m3 | mass density (343.06 K, 10013 kPa, x2 = 0.2346): 702.5 ± 0.3 kg/m3 | mass density (343.06 K, 11013 kPa, x2 = 0.2346): 703.5 ± 0.3 kg/m3 | mass density (343.06 K, 12014 kPa, x2 = 0.2346): 704.4 ± 0.3 kg/m3 | mass density (343.06 K, 13014 kPa, x2 = 0.2346): 705.3 ± 0.3 kg/m3 | mass density (343.06 K, 14014 kPa, x2 = 0.2346): 706.2 ± 0.4 kg/m3 | mass density (343.06 K, 15015 kPa, x2 = 0.2346): 707 ± 0.4 kg/m3 | mass density (343.06 K, 16016 kPa, x2 = 0.2346): 707.9 ± 0.4 kg/m3 | mass density (343.06 K, 17016 kPa, x2 = 0.2346): 708.8 ± 0.4 kg/m3 | mass density (343.06 K, 18017 kPa, x2 = 0.2346): 709.6 ± 0.4 kg/m3 | mass density (343.06 K, 19017 kPa, x2 = 0.2346): 710.4 ± 0.4 kg/m3 | mass density (343.06 K, 20018 kPa, x2 = 0.2346): 711.3 ± 0.4 kg/m3 | mass density (343.06 K, 21051 kPa, x2 = 0.2346): 712.1 ± 0.4 kg/m3 | mass density (343.06 K, 22053 kPa, x2 = 0.2346): 712.9 ± 0.4 kg/m3 | mass density (343.06 K, 23055 kPa, x2 = 0.2346): 713.7 ± 0.4 kg/m3 | mass density (343.06 K, 24057 kPa, x2 = 0.2346): 714.5 ± 0.4 kg/m3 | mass density (343.06 K, 25059 kPa, x2 = 0.2346): 715.2 ± 0.4 kg/m3 | mass density (352.9 K, 1001 kPa, x2 = 0.9511): 636.9 ± 0.3 kg/m3 | mass density (352.9 K, 2000 kPa, x2 = 0.9511): 638.4 ± 0.3 kg/m3 | mass density (352.9 K, 3000 kPa, x2 = 0.9511): 639.8 ± 0.3 kg/m3 | mass density (352.9 K, 4000 kPa, x2 = 0.9511): 641.1 ± 0.3 kg/m3 | mass density (352.9 K, 5000 kPa, x2 = 0.9511): 642.5 ± 0.3 kg/m3 | mass density (352.9 K, 6000 kPa, x2 = 0.9511): 643.8 ± 0.3 kg/m3 | mass density (352.9 K, 7000 kPa, x2 = 0.9511): 645.1 ± 0.3 kg/m3 | mass density (352.9 K, 8000 kPa, x2 = 0.9511): 646.4 ± 0.3 kg/m3 | mass density (352.9 K, 9000 kPa, x2 = 0.9511): 647.7 ± 0.3 kg/m3 | mass density (352.9 K, 10000 kPa, x2 = 0.9511): 648.9 ± 0.4 kg/m3 | mass density (352.9 K, 11000 kPa, x2 = 0.9511): 650.1 ± 0.4 kg/m3 | mass density (352.9 K, 12000 kPa, x2 = 0.9511): 651.3 ± 0.4 kg/m3 | mass density (352.9 K, 13000 kPa, x2 = 0.9511): 652.5 ± 0.4 kg/m3 | mass density (352.9 K, 14001 kPa, x2 = 0.9511): 653.6 ± 0.4 kg/m3 | mass density (352.9 K, 15001 kPa, x2 = 0.9511): 654.8 ± 0.4 kg/m3 | mass density (352.9 K, 16000 kPa, x2 = 0.9511): 655.9 ± 0.4 kg/m3 | mass density (352.9 K, 17001 kPa, x2 = 0.9511): 657 ± 0.4 kg/m3 | mass density (352.9 K, 18001 kPa, x2 = 0.9511): 658 ± 0.4 kg/m3 | mass density (352.9 K, 19000 kPa, x2 = 0.9511): 659.1 ± 0.4 kg/m3 | mass density (352.9 K, 20000 kPa, x2 = 0.9511): 660.1 ± 0.4 kg/m3 | mass density (352.9 K, 21001 kPa, x2 = 0.9511): 661.2 ± 0.5 kg/m3 | mass density (352.9 K, 22000 kPa, x2 = 0.9511): 662.2 ± 0.5 kg/m3 | mass density (352.9 K, 23001 kPa, x2 = 0.9511): 663.2 ± 0.5 kg/m3 | mass density (352.9 K, 24000 kPa, x2 = 0.9511): 664.1 ± 0.5 kg/m3 | mass density (352.9 K, 25000 kPa, x2 = 0.9511): 665.1 ± 0.5 kg/m3 | mass density (352.96 K, 1001 kPa, x2 = 0.05): 694 ± 0.3 kg/m3 | mass density (352.96 K, 2001 kPa, x2 = 0.05): 695.1 ± 0.3 kg/m3 | mass density (352.96 K, 2001 kPa, x2 = 0.5063): 672.2 ± 0.3 kg/m3 | mass density (352.96 K, 3000 kPa, x2 = 0.05): 696.1 ± 0.3 kg/m3 | mass density (352.96 K, 3000 kPa, x2 = 0.5063): 673.4 ± 0.3 kg/m3 | mass density (352.96 K, 4000 kPa, x2 = 0.05): 697.2 ± 0.3 kg/m3 | mass density (352.96 K, 4000 kPa, x2 = 0.5063): 674.6 ± 0.3 kg/m3 | mass density (352.96 K, 5000 kPa, x2 = 0.05): 698.2 ± 0.3 kg/m3 | mass density (352.96 K, 5000 kPa, x2 = 0.5063): 675.7 ± 0.3 kg/m3 | mass density (352.96 K, 6000 kPa, x2 = 0.05): 699.2 ± 0.3 kg/m3 | mass density (352.96 K, 6000 kPa, x2 = 0.5063): 676.8 ± 0.3 kg/m3 | mass density (352.96 K, 7000 kPa, x2 = 0.05): 700.2 ± 0.3 kg/m3 | mass density (352.96 K, 7000 kPa, x2 = 0.5063): 677.9 ± 0.3 kg/m3 | mass density (352.96 K, 8001 kPa, x2 = 0.05): 701.2 ± 0.3 kg/m3 | mass density (352.96 K, 8001 kPa, x2 = 0.5063): 679 ± 0.3 kg/m3 | mass density (352.96 K, 9000 kPa, x2 = 0.05): 702.2 ± 0.3 kg/m3 | mass density (352.96 K, 9000 kPa, x2 = 0.5063): 680.1 ± 0.3 kg/m3 | mass density (352.96 K, 10000 kPa, x2 = 0.05): 703.2 ± 0.3 kg/m3 | mass density (352.96 K, 10000 kPa, x2 = 0.5063): 681.2 ± 0.3 kg/m3 | mass density (352.96 K, 11000 kPa, x2 = 0.05): 704.1 ± 0.3 kg/m3 | mass density (352.96 K, 11000 kPa, x2 = 0.5063): 682.2 ± 0.3 kg/m3 | mass density (352.96 K, 12000 kPa, x2 = 0.05): 705.1 ± 0.3 kg/m3 | mass density (352.96 K, 12000 kPa, x2 = 0.5063): 683.2 ± 0.4 kg/m3 | mass density (352.96 K, 13000 kPa, x2 = 0.05): 706 ± 0.4 kg/m3 | mass density (352.96 K, 13000 kPa, x2 = 0.5063): 684.2 ± 0.4 kg/m3 | mass density (352.96 K, 14000 kPa, x2 = 0.05): 706.9 ± 0.4 kg/m3 | mass density (352.96 K, 14000 kPa, x2 = 0.5063): 685.2 ± 0.4 kg/m3 | mass density (352.96 K, 15000 kPa, x2 = 0.05): 707.8 ± 0.4 kg/m3 | mass density (352.96 K, 15000 kPa, x2 = 0.5063): 686.2 ± 0.4 kg/m3 | mass density (352.96 K, 16000 kPa, x2 = 0.05): 708.7 ± 0.4 kg/m3 | mass density (352.96 K, 16000 kPa, x2 = 0.5063): 687.2 ± 0.4 kg/m3 | mass density (352.96 K, 17000 kPa, x2 = 0.05): 709.6 ± 0.4 kg/m3 | mass density (352.96 K, 17001 kPa, x2 = 0.5063): 688.1 ± 0.4 kg/m3 | mass density (352.96 K, 18000 kPa, x2 = 0.05): 710.4 ± 0.4 kg/m3 | mass density (352.96 K, 18000 kPa, x2 = 0.5063): 689.1 ± 0.4 kg/m3 | mass density (352.96 K, 19000 kPa, x2 = 0.05): 711.3 ± 0.4 kg/m3 | mass density (352.96 K, 19000 kPa, x2 = 0.5063): 690 ± 0.4 kg/m3
